# From patent publication US20050043315A1, “Aminopyrimidine compounds, processes for their preparation and pharmaceutical compositions containing them” (priority 2002, published 2005)
row,SMILES,melting point [°C]
1,"CC(C)n1nc(-c2cnc(N)nc2-c2ccc(OCCN(C)C)cc2)ccc1=O [Example 217, 6-(2-amino-4-{4-(2-(dimethylamino)ethoxy]phenyl}-5-pyrimidinyl)-2-isopropyl-3(2H)-pyridazinone]",162
2,"CC(C)n1nc(-c2cnc(N)nc2-c2ccccc2OCCN(C)C)ccc1=O [Example 218, 6-(2-Amino-4-{2-[2-(dimethylamino)ethoxy]phenyl}-5-pyrimidinyl)-2-isopropyl-3(2H)-pyridazinone]",198
3,"CC(C)n1nc(-c2cnc(N)nc2-c2cccc(OCCN(C)C)c2)ccc1=O [Example 219, 6-(2-Amino-4-{3-[2-(dimethylamino)ethoxy]phenyl}-5-pyrimidinyl)-2-isopropyl-3(2H)-pyridazinone]",111
4,"CC(C)n1nc(-c2cnc(N)nc2-c2ccc(OCCN3CCOCC3)cc2)ccc1=O [Example 220, 6-(2-Amino-4-{4-[2-(4-morpholinyl)ethoxy]phenyl}-5-pyrimidinyl)-2-isopropyl-3(2H)-pyridazinone]",161
5,"CC(C)n1nc(-c2cnc(N)nc2-c2ccccc2OCCN2CCOCC2)ccc1=O [Example 221, 6-(2-Amino-4-{2-[2-(4-morpholinyl)ethoxy]phenyl}-5-pyrimidinyl)-2-isopropyl-3(2H)-pyridazinone]",115
6,"CC(C)n1nc(-c2cnc(N)nc2-c2cccc(OCCN3CCOCC3)c2)ccc1=O [Example 222, 6-(2-Amino-4-{3-[2-(4-morpholinyl)ethoxy]phenyl}-5-pyrimidinyl)-2-isopropyl-3(2H)-pyridazinone]",68
7,"CC(C)n1nc(-c2cnc(N)nc2-c2ccc(Br)cc2)ccc1=O [Example 235, 6-[2-Amino-4-(4-bromophenyl)-5-pyrimidinyl]-2-isopropyl-3(2H)-pyridazinone]",204
8,"CC(C)n1nc(-c2cnc(N)nc2-c2cccc(Br)c2)ccc1=O [Example 236, 6-[2-Amino-4-(3-bromophenyl)-5-pyrimidinyl]-2-isopropyl-3(2H)-pyridazinone]",238 to 240
9,"CC(C)n1nc(-c2cnc(N)nc2-c2c(F)cccc2F)ccc1=O [Example 237, 6-[2-Amino-4-(2,6-difluorophenyl)-5-pyrimidinyl]-2-isopropyl-3(2H)-pyridazinone]",244
10,"CC(C)n1nc(-c2cnc(N)nc2-c2cc(F)cc(F)c2)ccc1=O [Example 238, 6-[2-Amino-4-(3,5-difluorophenyl)-5-pyrimidinyl]-2-isopropyl-3(2H)-pyridazinone]",234
11,"CC(C)n1nc(-c2cnc(N)nc2-c2c(Cl)cccc2Cl)ccc1=O [Example 239, 6-[2-Amino-4-(2,6-dichlorophenyl)-5-pyrimidinyl]-2-isopropyl-3(2H)-pyridazinone]",208
12,"Cc1cccc(C)c1-c1nc(N)ncc1-c1ccc(=O)n(C(C)C)n1 [Example 240, 6-[2-Amino-4-(2,6-dimethylphenyl)-5-pyrimidinyl]-2-isopropyl-3(2H)-pyridazinone]",212
13,"CC(C)n1nc(-c2cnc(N)nc2-c2ccoc2)ccc1=O [Example 241, 6-[2-Amino-4-(3-furyl)-5-pyrimidinyl]-2-isopropyl-3(2H)-pyridazinone]",216
14,"CC(C)n1nc(-c2cnc(N)nc2-c2ccsc2)ccc1=O [Example 242, 6-[2-Amino-4-(3-thienyl)-5-pyrimidinyl]-2-isopropyl-3(2H)-pyridazinone]",234
15,"COc1cccc(OC)c1-c1nc(N)ncc1-c1ccc(=O)n(C(C)C)n1 [Example 243, 6-[2-Amino-4-(2,6-dimethoxyphenyl)-5-pyrimidinyl]-2-isopropyl-3(2H)-pyridazinone]",260
16,"Cn1nc(-c2cnc(N)nc2-c2ccoc2)ccc1=O [Example 244, 6-[2-Amino-4-(3-furyl)-5-pyrimidinyl]-2-methyl-3(2H)-pyridazinone]",241
17,"Cn1nc(-c2cnc(N)nc2-c2ccsc2)ccc1=O [Example 245, 6-[2-Amino-4-(3-thienyl)-5-pyrimidinyl]-2-methyl-3(2H)-pyridazinone]",252
18,"CN(C)c1ncc(-c2ccc(=O)n(C)n2)c(-c2ccc(Cl)cc2)n1 [Example 246, 6-[4-(4-chlorophenyl)-2-(dimethylamino)-5-pyrimidinyl]-2-methyl-3(2H)-pyridazinone]",166
19,"COc1ccc(-c2nc(N(C)C)ncc2-c2ccc(=O)n(C)n2)cc1 [Example 247, 6-[2-(Dimethylamino)-4-(4-methoxyphenyl)-5-pyrimidinyl]-2-methyl-3(2H)-pyridazinone]",165
20,"CN(C)c1ncc(-c2ccc(=O)n(C)n2)c(-c2cccc(F)c2)n1 [Example 248, 6-[2-(Dimethylamino)-4-(3-fluorophenyl)-5-pyrimidinyl]-2-methyl-3(2H)-pyridazinone]",184
21,"COc1ccc(-c2nc(N(C)C)ncc2-c2ccc(=O)n(C)n2)cc1F [Example 249, 6-[2-(Dimethylamino)-4-(3-fluoro-4-methoxyphenyl)-5-pyrimidinyl]-2-methyl-3(2H)-pyridazinone]",158
22,"COCC(C)n1nc(-c2cnc(N)nc2-c2ccccc2)ccc1=O (stereo not shown) [Example 250, 6-(2-Amino-4-phenyl-5-pyrimidinyl)-2-(2-methoxy-1-methylethyl)-3(2H)-pyridazinone]",180 to 181
23,"CC(CO)n1nc(-c2cnc(N)nc2-c2ccccc2)ccc1=O (stereo not shown) [Example 251, 6-(2-amino-4-phenyl-5-pyrimidinyl)-2-(2-hydroxy-1-methylethyl)-3(2H)-pyridazinone]",222 to 223
24,"CC(C)n1nc(-c2c(Cl)nc(N)nc2-c2ccccc2)ccc1=O [Example 252, 6-(2-amino-4-chloro-6-phenyl-5-pyrimidinyl)-2-isopropyl-3(2H)-pyridazinone]",235 to 237
25,"Cc1nc(N)nc(-c2ccccc2)c1-c1ccc(=O)n(C(C)C)n1 [Example 253, 6-(2-amino-4-methyl-6-phenyl-5-pyrimidinyl)-2-isopropyl-3(2H)-pyridazinone]",213 to 215
